Patent US20180148418A1, “AMIDO-SUBSTITUTED CYCLOHEXANE DERIVATIVES” (Bayer Pharma Aktiengesellschaft, priority 2015, published 2018)

How the values were obtained:
[1] = tested on: wildtype Wnt signaling cascade; assay: HEK293 TOP assay (Super TopFlash luciferase reporter, Wnt-3a stimulated); type: cell-based; conditions: Homo sapiens, HEK293, 16 h, HEK293 TOP reporter cells, Wnt3a at EC50, 16 hours
How it was run: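 Compound series (50 μM down to 15 nM, 3.16-fold) diluted from DMSO 50-fold into CAFTY buffer, pH 7.4, 2 mM Ca^2+, 0.01% BSA, applied to Wnt-3a-stimulated HEK293 TopFlash and FOP reporter lines in parallel. Cells seeded 10000/well 24 h before; luciferase signal measured.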

TNKS2 = target: T1, TNKS2 (Homo sapiens, UniProt Q9H2K2); assay: TNKS2 Assay B (auto-parsylation, [3H]-NAD+ SPA); type: biochemical; conditions: 6 nM TNKS2, auto-parsylation, over night at room temperature
T1 construct: purchased BPS Bioscience, San Diego, USA 80572 (TNKS2 Histone Ribosylation Assay Kit)
T1 sequence (Q9H2K2 1-1166): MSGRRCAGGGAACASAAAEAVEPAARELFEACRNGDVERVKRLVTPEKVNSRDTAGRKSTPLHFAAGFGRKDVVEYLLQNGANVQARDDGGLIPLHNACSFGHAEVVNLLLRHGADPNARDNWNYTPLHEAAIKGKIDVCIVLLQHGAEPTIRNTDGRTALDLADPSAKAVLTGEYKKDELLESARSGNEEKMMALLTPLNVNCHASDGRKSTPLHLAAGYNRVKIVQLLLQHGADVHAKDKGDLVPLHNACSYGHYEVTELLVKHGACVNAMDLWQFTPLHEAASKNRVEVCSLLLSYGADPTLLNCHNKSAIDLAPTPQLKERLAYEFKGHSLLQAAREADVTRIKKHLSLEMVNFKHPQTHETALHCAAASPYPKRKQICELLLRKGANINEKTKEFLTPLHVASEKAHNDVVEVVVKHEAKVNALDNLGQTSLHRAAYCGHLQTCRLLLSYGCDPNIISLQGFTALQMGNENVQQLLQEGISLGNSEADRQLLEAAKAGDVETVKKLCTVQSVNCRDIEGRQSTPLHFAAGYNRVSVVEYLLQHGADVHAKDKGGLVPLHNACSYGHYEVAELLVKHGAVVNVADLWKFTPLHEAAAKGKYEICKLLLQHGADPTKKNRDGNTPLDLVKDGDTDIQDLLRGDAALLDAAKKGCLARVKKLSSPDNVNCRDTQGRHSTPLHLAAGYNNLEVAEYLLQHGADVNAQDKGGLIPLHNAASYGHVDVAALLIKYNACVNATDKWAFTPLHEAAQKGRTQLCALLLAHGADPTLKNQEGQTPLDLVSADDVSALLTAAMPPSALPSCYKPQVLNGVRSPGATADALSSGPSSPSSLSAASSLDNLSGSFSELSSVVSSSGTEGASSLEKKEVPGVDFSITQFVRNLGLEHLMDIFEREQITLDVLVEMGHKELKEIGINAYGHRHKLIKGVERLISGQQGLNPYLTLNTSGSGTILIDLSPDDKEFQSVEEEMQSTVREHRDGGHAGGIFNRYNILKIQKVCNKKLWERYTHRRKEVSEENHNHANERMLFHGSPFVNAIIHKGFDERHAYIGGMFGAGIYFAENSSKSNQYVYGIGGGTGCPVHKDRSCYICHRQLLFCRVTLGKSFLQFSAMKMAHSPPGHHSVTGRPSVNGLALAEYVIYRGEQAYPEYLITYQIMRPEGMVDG

[2] = tested on: HEK293 cells cotransfected with the FOP control vector; assay: HEK293 FOP assay (control reporter with non-functional TCF elements); type: cell-based; conditions: Homo sapiens, 16 hours
How it was run: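 Compound series from 50 μM down to 15 nM, prediluted in DMSO then 50-fold into CAFTY buffer (pH 7.4, 2 mM Ca2+, 0.01% BSA), tested alongside TOP cells on a Geneticin-selected HEK293 FOP line whose TCF elements are replaced by a random sequence; recombinant human Wnt-3a applied at 2500-5 ng/ml.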

Compound | IC50 [1] [nM] | IC50 (TNKS2) [nM] | IC50 [2] [nM]
O=C(N[C@H]1CC[C@@]2(CCN(c3ccccc3)C2=O)CC1)c1cnn2cccnc12 [Example 238, N-[(trans)-1-oxo-2-phenyl-2-azaspiro[4.5]dec-8-yl]pyrazolo[1,5-a]pyrimidine-3-carboxamide] | 43 | 400 | ≥ 500
COCc1cc(C)n2ncc(C(=O)N[C@H]3CC[C@@]4(CCN(c5c(F)cc(F)cc5Cl)C4=O)CC3)c2n1 [Example 242, N-[(trans)-2-(2-chloro-4,6-difluorophenyl)-1-oxo-2-azaspiro[4.5]dec-8-yl]-5-(methoxymethyl)-7-methylpyrazolo[1,5-a]pyrimidine-3-carboxamide] | 7.1 | 21 | ≥ 50000
O=C(N[C@H]1CC[C@@]2(CCCN(c3ccc(F)cc3Cl)C2=O)CC1)c1cnc2cccnn12 [Example 326, N-[(trans)-2-(2-chloro-4-fluorophenyl)-1-oxo-2-azaspiro[5.5]undec-9-yl]imidazo[1,2-b]pyridazine-3-carboxamide] | 60 | 180 | ≥ 50000
Cc1cc(N2CC[C@]3(CC[C@@H](NC(=O)c4[nH]cnc4C(=O)N4CC5(COC5)C4)CC3)C2=O)c(Cl)cc1F [Example 293, N-[(trans)-2-(2-chloro-4-fluoro-5-methylphenyl)-1-oxo-2-azaspiro[4.5]dec-8-yl]-4-(2-oxa-6-azaspiro[3.3]hept-6-ylcarbonyl)-1H-imidazole-5-carboxamide] | 1.6 | 7.9 | ≥ 50000
O=C(N[C@H]1CC[C@@]2(CCCN(c3cc(F)c(F)cc3Cl)C2=O)CC1)c1[nH]cnc1C(=O)N1CC(F)C1 [Example 316, N-[(trans)-2-(2-chloro-4,5-difluorophenyl)-1-oxo-2-azaspiro[5.5]undec-9-yl]-4-[(3-fluoroazetidin-1-yl)carbonyl]-1H-imidazole-5-carboxamide] | 1.6 | 5 | ≥ 500
Cc1cc(N2CCC[C@]3(CC[C@@H](NC(=O)c4[nH]cnc4C(=O)N4CC(F)C4)CC3)C2=O)c(Cl)cc1F [Example 303, N-[(trans)-2-(2-chloro-4-fluoro-5-methylphenyl)-1-oxo-2-azaspiro[5.5]undec-9-yl]-4-[(3-fluoroazetidin-1-yl)carbonyl]-1H-imidazole-5-carboxamide] | 14 | 32 | ≥ 500
O=C(N[C@H]1CC[C@@]2(CCN(c3ccc(F)cc3Cl)C2=O)CC1)c1c[nH]c2cccnc12 [Example 236, N-[(trans)-2-(2-chloro-4-fluorophenyl)-1-oxo-2-azaspiro[4.5]dec-8-yl]-1H-pyrrolo[3,2-b]pyridine-3-carboxamide] | 350 | 19 | ≥ 50000
O=C(N[C@H]1CC[C@@]2(CCN(c3ccccn3)C2=O)CC1)c1cnn2cccnc12 [Example 346, N-[(trans)-1-oxo-2-(pyridin-2-yl)-2-azaspiro[4.5]dec-8-yl]pyrazolo[1,5-a]pyrimidine-3-carboxamide] | 59 | 530 | ≥ 50000
O=C(N[C@H]1CC[C@@]2(CCN(c3c(F)cc(F)cc3Cl)C2=O)CC1)c1cnn2cccnc12 [Example 244, N-[(trans)-2-(2-chloro-4,6-difluorophenyl)-1-oxo-2-azaspiro[4.5]dec-8-yl]pyrazolo[1,5-a]pyrimidine-3-carboxamide] | 3.7 | 6.4 | ≥ 500
O=C(N[C@H]1CC[C@]2(CCN(c3ccc(F)cc3Cl)C2=O)CC1)c1[nH]cnc1C(=O)N1CC(F)C1 [Example 340, N-[(cis)-2-(2-chloro-4-fluorophenyl)-1-oxo-2-azaspiro[4.5]dec-8-yl]-4-[(3-fluoroazetidin-1-yl)carbonyl]-1H-imidazole-5-carboxamide] | 77 | 850 | 25000
Cc1ccn2ncc(C(=O)N[C@H]3CC[C@]4(CCN(c5ccc(F)cc5Cl)C4=O)CC3)c2n1 [Example 335, N-[(cis)-2-(2-chloro-4-fluorophenyl)-1-oxo-2-azaspiro[4.5]dec-8-yl]-5-methylpyrazolo[1,5-a]pyrimidine-3-carboxamide] | 650 | > 10000 | ≥ 50000
COCc1cc(C)n2ncc(C(=O)N[C@H]3CC[C@@]4(CCN(c5ccc(F)cc5Cl)C4=O)CC3)c2n1 [Example 220, N-[(trans)-2-(2-chloro-4-fluorophenyl)-1-oxo-2-azaspiro[4.5]dec-8-yl]-5-(methoxymethyl)-7-methylpyrazolo[1,5-a]pyrimidine-3-carboxamide] | 2.6 | 10 | 38000

Further lines, with some results ahead:

IC50 [1] [nM] | IC50 (TNKS2) [nM] | Compound | IC50 [2] [nM]
≥ 50000 | > 10000 | O=C(N[C@H]1CC[C@H](C(=O)Nc2ccc(F)cc2Cl)CC1)c1c[nH]c2ccccc12 [Example 252, N-{trans-4-[(2-chloro-4-fluorophenyl)carbamoyl]cyclohexyl}-1H-indole-3-carboxamide] | ≥ 50000
440 | 4300 | CN1CCN(C(=O)c2nc[nH]c2C(=O)N[C@H]2CC[C@@]3(CCN(c4cccc(Cl)c4)C3=O)CC2)CC1 [Example 283, N-[(trans)-2-(3-chlorophenyl)-1-oxo-2-azaspiro[4.5]dec-8-yl]-4-[(4-methylpiperazin-1-yl)carbonyl]-1H-imidazole-5-carboxamide] | 20000
1.4 | 8.7 | CNC(=O)c1nc[nH]c1C(=O)N[C@H]1CC[C@@]2(CCCN(c3cc(F)c(F)cc3Cl)C2=O)CC1 [Example 317, N^5-[(trans)-2-(2-chloro-4,5-difluorophenyl)-1-oxo-2-azaspiro[5.5]undec-9-yl]-N^4-methyl-1H-imidazole-4,5-dicarboxamide] | ≥ 500
20000 | > 10000 | O=C(N[C@H]1CC[C@H](C(=O)Nc2ccc(F)cc2Cl)CC1)c1n[nH]c2ccccc12 [Example 253, N-{trans-4-[(2-chloro-4-fluorophenyl)carbamoyl]cyclohexyl}-1H-indazole-3-carboxamide] | 19000
100 | 720 | O=C(N[C@H]1CC[C@@]2(CCN(c3cc(F)cc(F)c3)C2=O)CC1)c1cnn2cccnc12 [Example 245, N-[(trans)-2-(3,5-difluorophenyl)-1-oxo-2-azaspiro[4.5]dec-8-yl]pyrazolo[1,5-a]pyrimidine-3-carboxamide] | ≥ 50000
840 | 1300 | NC(=O)c1nc[nH]c1C(=O)N[C@H]1CC[C@]2(CCN(c3ccc(F)cc3Cl)C2=O)CC1 [Example 342, N^5-[(cis)-2-(2-chloro-4-fluorophenyl)-1-oxo-2-azaspiro[4.5]dec-8-yl]-1H-imidazole-4,5-dicarboxamide] | 35000
590 | 210 | O=C(N[C@H]1CC[C@@]2(CCN(c3ccc(F)cc3Cl)C2=O)CC1)c1cnn2ccc(O)nc12 [Example 234, N-[(trans)-2-(2-chloro-4-fluorophenyl)-1-oxo-2-azaspiro[4.5]dec-8-yl]-5-hydroxypyrazolo[1,5-a]pyrimidine-3-carboxamide] | ≥ 50000
2 | 8.7 | CCNC(=O)c1nc[nH]c1C(=O)N[C@H]1CC[C@@]2(CCCN(c3cc(F)c(F)cc3Cl)C2=O)CC1 [Example 318, N^5-[(trans)-2-(2-chloro-4,5-difluorophenyl)-1-oxo-2-azaspiro[5.5]undec-9-yl]-N^4-ethyl-1H-imidazole-4,5-dicarboxamide] | ≥ 500
